Results on six molecules are retold here after ChEMBL document CHEMBL1127151, “Derivatives of cyclosporin at position 2 as probes for cyclophilin” (1993).

One test is filed under the species Mus musculus. As to the kind of experiment: The immunosuppressive activity of compound was measured with the help of a mixed lymphocyte reaction in mouse (MLR_M), activity relative to compound 1. Type of test: functional.
For a further test, the system named is T-cell. As to the kind of experiment: The immunosuppressive activity of compound was measured with the help of a reporter gene assay (IL2_RGA), activity relative to compound 1. Type of test: functional, Homo sapiens. Background: In a reporter assay the amount or activity of a reporter protein is the signal.
A short description of test [1]: In vitro binding affinity of compound was measured to Cyclophilin under competitive ELISA system, activity relative to compound 1. On the technique in general: ELISA stands for enzyme-linked immunosorbent assay.

Turning to `C/C=C/C[C@@H](C)[C@@H](O)[C@H]1C(=O)N[C@@H](CC(Cl)Cl)C(=O)N(C)CC(=O)N(C)[C@@H](CC(C)C)C(=O)N[C@@H](C(C)C)C(=O)N(C)[C@@H](CC(C)C)C(=O)N[C@@H](C)C(=O)N[C@H](C)C(=O)N(C)[C@@H](CC(C)C)C(=O)N(C)[C@@H](CC(C)C)C(=O)N(C)C(C(C)C)C(=O)N1C` (single isomer, unassigned), the Ratio turned out to be 135 in the test listed under Mus musculus, 200 with T-cell and 250 in test [1].

With `C/C=C/C[C@@H](C)[C@@H](O)[C@H]1C(=O)N[C@@H]([C@H](O)CC)C(=O)N(C)CC(=O)N(C)[C@@H](CC(C)C)C(=O)N[C@@H](C(C)C)C(=O)N(C)[C@@H](CC(C)C)C(=O)N[C@@H](C)C(=O)N[C@H](C)C(=O)N(C)[C@@H](CC(C)C)C(=O)N(C)[C@@H](CC(C)C)C(=O)N(C)C(C(C)C)C(=O)N1C` (single isomer, unassigned), the Ratio in the test filed under Mus musculus came to 2.3; in the test on T-cell, 3; in test [1], 5.2.

With `C/C=C/C[C@@H](C)[C@@H](O)[C@H]1C(=O)N[C@@H](CC2CC2)C(=O)N(C)CC(=O)N(C)[C@@H](CC(C)C)C(=O)N[C@@H](C(C)C)C(=O)N(C)[C@@H](CC(C)C)C(=O)N[C@@H](C)C(=O)N[C@H](C)C(=O)N(C)[C@@H](CC(C)C)C(=O)N(C)[C@@H](CC(C)C)C(=O)N(C)C(C(C)C)C(=O)N1C` (single isomer, unassigned), the Ratio in the test listed under Mus musculus was found to be 120; with T-cell, 225; in test [1], 250.

Regarding `C/C=C/C[C@@H](C)[C@@H](O)[C@H]1C(=O)N[C@@H]([C@@H](C)O)C(=O)N(C)CC(=O)N(C)[C@@H](CC(C)C)C(=O)N[C@@H](C(C)C)C(=O)N(C)[C@@H](CC(C)C)C(=O)N[C@@H](C)C(=O)N[C@H](C)C(=O)N(C)[C@@H](CC(C)C)C(=O)N(C)[C@@H](CC(C)C)C(=O)N(C)C(C(C)C)C(=O)N1C` (single isomer, unassigned), the Ratio in the test filed under Mus musculus was 1.7; in the test with T-cell, 1; in test [1] it was 1.4.

With `C/C=C/C[C@@H](C)[C@@H](O)[C@H]1C(=O)N[C@@H](C[C@@H](C)O)C(=O)N(C)CC(=O)N(C)[C@@H](CC(C)C)C(=O)N[C@@H](C(C)C)C(=O)N(C)[C@@H](CC(C)C)C(=O)N[C@@H](C)C(=O)N[C@H](C)C(=O)N(C)[C@@H](CC(C)C)C(=O)N(C)[C@@H](CC(C)C)C(=O)N(C)C(C(C)C)C(=O)N1C` (single isomer, unassigned), the Ratio in test [1] was 207.

As for `C/C=C/C[C@@H](C)[C@@H](O)[C@H]1C(=O)N[C@@H](CCC)C(=O)N(C)CC(=O)N(C)[C@@H](CC(C)C)C(=O)N[C@@H](C(C)C)C(=O)N(C)[C@@H](CC(C)C)C(=O)N[C@@H](C)C(=O)N[C@H](C)C(=O)N(C)[C@@H](CC(C)C)C(=O)N(C)[C@@H](CC(C)C)C(=O)N(C)C(C(C)C)C(=O)N1C` (single isomer, unassigned) [GECLOSPORIN], the Ratio came to 1.6 in the test listed under Mus musculus, 2.6 in the test on T-cell and 4 in test [1].
